Source: patent publication US20260199323A1, “LIGAND COMPOUNDS FOR E3 UBIQUITIN LIGASE, PROTEIN DEGRADERS DEVELOPED ON BASIS OF LIGAND COMPOUNDS, AND USES THEREOF” (GLUETACS THERAPEUTICS (SHANGHAI) CO., LTD., priority 2021, published 2026)
pIC50: −log10 of the molar value. Where two headings read alike, the source gives them in different places. Values belong to the compound of their own block, whether it stands above or below them.

Legend:
CCRF-CEM = experiment: CCK-8 tumor cell proliferation, CCRF-CEM; type: cell-based, Human; set-up: IC50 for inhibiting the proliferation of tumor cells, CCRF-CEM: scale not given here; conditions: for pIC50: Homo sapiens, CCRF-CEM
In short: (§1)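 Viability determined colorimetrically with CCK-8 following compound treatment. Dosing began 24 h post-plating using ten 5-fold dilutions capped at 10 μM; growth-inhibition curves yielded IC50.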

T47D = experiment: CCK-8 tumor cell proliferation, T47D; type: cell-based, Human; conditions: for pIC50: Homo sapiens, T47D
Description: (§2) The tumor cells used herein were cultured in a cell culture medium listed in table 4 at 37° C. in an incubator with 5% CO2. Prior to experimentation, all cells used were correctly identified by STR profiling, and tested negative for mycoplasma through routine screenings.
(§3) IC50 values of the compounds of the present disclosure (including the compounds in Tables 1 and 3, and compounds of examples) were measured using the Meilun Cell Counting Kit-8 kit from Dalian Meilun Biotech Co., Ltd. Assay details are as follows: tumor cells were seeded in a 96-well plate at a density listed in Table 5. After 24 h, 100 μL of the inoculated cells were treated with 0.5 μL of the compounds of the present disclosure (including the compounds in Tables 1 and 3, and compounds of examples) at 10 different successively decreasing concentrations (starting at the highest concentration of 10 μM; 5-fold serial dilutions). After the cells were treated with the compounds of the present disclosure for a period of time, the cell viability detection reagent was added to the culture medium for cell viability assessment according to the instructions provided with the CCK-8 kit. […] The growth inhibition of the compounds of the present disclosure on cells was plotted by Prism Graphpad software, and the IC50 values of the compounds of the present disclosure were calculated therefrom.

MM.1S = experiment: CCK-8 tumor cell proliferation, MM.1S; type: cell-based; conditions: for pIC50: Homo sapiens, MM1.S
In short: as §1

Hep3B2.7-1 = experiment: CCK-8 tumor cell proliferation, Hep3B2.7-1; type: cell-based, Human; conditions: for pIC50: Homo sapiens
Description: as §2, §3

Jurkat = experiment: CCK-8 tumor cell proliferation, Jurkat; type: cell-based, Human; conditions: Homo sapiens, read-out: IC50 inhibiting proliferation of tumor cells, Jurkat
In short: as §1

MM.1R = experiment: CCK-8 tumor cell proliferation, MM.1R; type: cell-based; conditions: read-out: IC50 inhibiting proliferation of tumor cells, MM.1R
In short: as §1

Kasumi-1 = experiment: CCK-8 tumor cell proliferation, Kasumi-1; type: cell-based, Human; conditions: for pIC50: Homo sapiens, Kasumi-1, read-out: IC50 inhibiting proliferation of tumor cells, Kasumi-1; for IC50 for inhibiting the proliferation of tumor cells, Kasumi-1: Table 8, designed based on ER inhibitors, 72 h
In short: as §1

SR = experiment: CCK-8 tumor cell proliferation, SR; type: cell-based, Human; conditions: Homo sapiens; Table 18, FAK inhibitor based; SR; read-out: IC50 inhibiting proliferation of tumor cells, SR
In short: as §1

Mino = experiment: CCK-8 tumor cell proliferation, Mino; type: cell-based, Human; conditions: for IC50 for inhibiting the proliferation of tumor cells, Mino: 72 h
In short: as §1

HGC-27 = experiment: CCK-8 tumor cell proliferation, HGC-27; type: cell-based, Human; conditions: Homo sapiens; Table 18, FAK inhibitor based; HGC-27; read-out: IC50 inhibiting proliferation of tumor cells, HGC-27
Description: as §2, §3

PC-9 = experiment: CCK-8 tumor cell proliferation, PC-9; type: cell-based, Human; conditions: Homo sapiens; Table 18, FAK inhibitor based; PC-9; read-out: IC50 inhibiting proliferation of tumor cells, PC-9
SW620 = experiment: CCK-8 tumor cell proliferation, SW620; type: cell-based, Human; conditions: for IC50 for inhibiting the proliferation of tumor cells, SW620: Table 8, designed based on ER inhibitors, 96 h
In short: as §1

MDA-MB-231 = experiment: CCK-8 tumor cell proliferation, MDA-MB-231; type: cell-based, Human; set-up: IC50 for inhibiting the proliferation of tumor cells, MDA-MB-231: scale not given here
In short: as §1

HCC827 = experiment: CCK-8 tumor cell proliferation, HCC827; type: cell-based, Human; conditions: Table 8, designed based on ER inhibitors, 96 h
Description: The tumor cells used herein were cultured in a cell culture medium listed in table 4 at 37° C. in an incubator with 5% CO2.
as §3, with “After” for “IC50 values of the compounds of the present disclosure (including the compounds in Tables 1 and 3, and compounds of examples) were measured using the Meilun Cell Counting Kit-8 kit from Dalian Meilun Biotech Co., Ltd. Assay details are as follows: tumor cells were seeded in a 96-well plate at a density listed in Table 5. After”

SU-DHL-6 = experiment: CCK-8 tumor cell proliferation, SU-DHL-6; type: cell-based, Human; conditions: 72 h
Description: as §2, §3

[1] = Table 22, NTRK inhibitor based, read-out: IC50 inhibiting proliferation of tumor cells, CCRF-CEM
[2] = Table 22, NTRK inhibitor based, read-out: IC50 inhibiting proliferation of tumor cells, T47D
[3] = Table 22, NTRK inhibitor based, MM.1S, read-out: IC50 inhibiting proliferation of tumor cells, MM.1S
[4] = Table 22, NTRK inhibitor based, HEP3B2.7-1, read-out: IC50 inhibiting proliferation of tumor cells, HEP3B2.7-1
[5] = Table 8, designed based on ER inhibitors, 96 h
[6] = Table 8, designed based on ER inhibitors, 72 h
[7] = Table 8, designed based on ER inhibitors
[8] = Table 14, designed based on CDK4/6 inhibitors

pIC50 (CCRF-CEM; [1]): > 7.30 | pIC50 (T47D; [2]): 6.30 to 7.00 | pIC50 (MM.1S; [3]): 7.00 to 7.30 | pIC50 (Hep3B2.7-1; [4]): > 7.30 | pIC50 (Jurkat; Table 22, NTRK inhibitor based): > 7.30 | pIC50 (MM.1R; Table 22, NTRK inhibitor based): > 7.30 | pIC50 (Kasumi-1; Table 22, NTRK inhibitor based): > 7.30
Structure (SMILES): O=C1CCC(N2Cc3cc(CN4CCN(c5cccc(-c6cnc7ccc(N8CCC[C@@H]8c8cccc(F)c8)nn67)n5)CC4)cc(F)c3C2=O)C(=O)N1 (stereo partly drawn) [GT-03867, 3-(7-fluoro-5-((4-(6-(6-((R)-2-(3-fluorophenyl)pyrrolidin-1-yl)imidazo[1,2-b]pyridazin-3-yl)pyridin-2-yl)piperazin-1-yl)methyl)-1-oxoisoindolin-2-yl)piperidine-2,6-dione]

pIC50 (CCRF-CEM; Table 22, given as number, read-out: IC50 inhibiting proliferation of tumor cells, CCRF-CEM): < 5.00 | pIC50 (T47D; Table 22, given as number, read-out: IC50 inhibiting proliferation of tumor cells, T47D): < 5.00 | pIC50 (MM.1S; Table 22, MM.1S, given as number, read-out: IC50 inhibiting proliferation of tumor cells, MM.1S): < 5.00 | pIC50 (Hep3B2.7-1; Table 22, HEP3B2.7-1, given as number, read-out: IC50 inhibiting proliferation of tumor cells, HEP3B2.7-1): < 5.00 | pIC50 (Jurkat; Table 22, given as number): < 5.00 | pIC50 (MM.1R; Table 22, given as number): < 5.00 | pIC50 (Kasumi-1; Table 22, given as number): < 5.00
Structure (SMILES): O=C(Nc1cnn2ccc(N3CCC[C@@H]3c3cc(F)ccc3F)nc12)N1CC[C@H](O)C1 [larotrectinib]

pIC50 (CCRF-CEM; [1]): > 7.30 | pIC50 (T47D; [2]): > 7.30 | pIC50 (MM.1S; [3]): > 7.30 | pIC50 (Hep3B2.7-1; [4]): > 7.30 | pIC50 (Jurkat; Table 22, NTRK inhibitor based): > 7.30 | pIC50 (MM.1R; Table 22, NTRK inhibitor based): > 7.30 | pIC50 (Kasumi-1; Table 22, NTRK inhibitor based): > 7.30
Structure (SMILES): O=C1CCC(N2Cc3cc(CN4CCN(c5cccc(-c6cnn7ccc(N8CCC[C@@H]8c8cc(F)ccc8F)nc67)n5)CC4)c(F)cc3C2=O)C(=O)N1 (stereo partly drawn) [GT-04264, 3-(5-((4-(6-(5-((R)-2-(2,5-difluorophenyl)pyrrolidin-1-yl)pyrazolo[1,5-a]pyrimidin-3-yl)pyridin-2-yl)piperazin-1-yl)methyl)-6-fluoro-1-oxoisoindolin-2-yl)piperidine-2,6-dione]

pIC50 (CCRF-CEM; Table 18, FAK inhibitor based, read-out: IC50 inhibiting proliferation of tumor cells, CCRF-CEM): 6.30 to 7.00 | pIC50 (SR): 7.00 to 7.30 | pIC50 (Mino; Homo sapiens, Table 18, FAK inhibitor based, Mino, read-out: IC50 inhibiting proliferation of tumor cells, Mino): 5.30 to 6.00 | pIC50 (HGC-27): 6.00 to 6.30 | pIC50 (PC-9): 6.30 to 7.00 | pIC50 (SW620; Homo sapiens, SW-620, Table 18, FAK inhibitor based, SW620, read-out: IC50 inhibiting proliferation of tumor cells, SW620): 6.30 to 7.00 | pIC50 (MDA-MB-231; Homo sapiens, Table 18, FAK inhibitor based, MDA-MB-231, read-out: IC50 inhibiting proliferation of tumor cells, MDA-MB-231): 6.30 to 7.00
Structure (SMILES): CNC(=O)c1ccccc1Nc1cc(Nc2ccc(N3CCC(N4CCN(Cc5ccc6c(c5)CN(C5CCC(=O)NC5=O)C6=O)CC4)CC3)cc2OC)ncc1C(F)(F)F (stereo not drawn) [GT-03266, 2-((2-((4-(4-(4-((2-(2,6-dioxopiperidin-3-yl)-1-oxoisoindolin-5-yl)methyl)piperazin-1-yl)piperidin-1-yl)-2-methoxyphenyl)amino)-5-(trifluoromethyl)pyridin-4-yl)amino)-N-methylbenzamide]

IC50 for inhibiting the proliferation of tumor cells, HCC827 (HCC827): A+ | IC50 for inhibiting the proliferation of tumor cells, CCRF-CEM (CCRF-CEM; [5]): A+ | IC50 for inhibiting the proliferation of tumor cells, T47D (T47D; [5]): A+ | IC50 for inhibiting the proliferation of tumor cells, MM.1S (MM.1S; [6]): A+ | IC50 for inhibiting the proliferation of tumor cells, Mino (Mino; [7]): A+ | IC50 for inhibiting the proliferation of tumor cells, SW620 (SW620): A+ | IC50 for inhibiting the proliferation of tumor cells, SU-DHL-6 (SU-DHL-6; [7]): A+ | IC50 for inhibiting the proliferation of tumor cells, Kasumi-1 (Kasumi-1): A+
Structure (SMILES): CCC(=C(c1ccc(O)cc1)c1ccc(N2CCN(Cc3ccc4c(c3)CN(C3CCC(=O)NC3=O)C4=O)CC2)cc1)c1ccc(O)cc1 (stereo not drawn) [GT-03551, 3-(5-((4-(4-(1,2-bis(4-hydroxyphenyl)but-1-en-1-yl)phenyl)piperazin-1-yl)methyl)-1-oxoisoindolin-2-yl)piperidine-2,6-dione]

IC50 for inhibiting the proliferation of tumor cells, HCC827 (HCC827): A+ | IC50 for inhibiting the proliferation of tumor cells, CCRF-CEM (CCRF-CEM; [5]): A+ | IC50 for inhibiting the proliferation of tumor cells, T47D (T47D; [5]): A+ | IC50 for inhibiting the proliferation of tumor cells, MM.1S (MM.1S; [6]): A+ | IC50 for inhibiting the proliferation of tumor cells, Hep3B2.7-1 (Hep3B2.7-1; [5]): A+ | IC50 for inhibiting the proliferation of tumor cells, SW620 (SW620): A+ | IC50 for inhibiting the proliferation of tumor cells, MDA-MB-231 (MDA-MB-231; [5]): A+ | IC50 for inhibiting the proliferation of tumor cells, SU-DHL-6 (SU-DHL-6; [7]): A+ | IC50 for inhibiting the proliferation of tumor cells, Kasumi-1 (Kasumi-1): A+
Structure (SMILES): CCC(=C(c1ccc(O)cc1)c1ccc(OCCNCc2ccc3c(c2)CN(C2CCC(=O)NC2=O)C3=O)cc1)c1ccc(O)cc1 (stereo not drawn) [GT-03214, 3-(5-(((2-(4-(1,2-bis(4-hydroxyphenyl)but-1-en-1-yl)phenoxy)ethyl)amino)methyl)-1-oxoisoindolin-2-yl)piperidine-2,6-dione]

IC50 for inhibiting the proliferation of tumor cells, T47D (T47D; [5]): A+
Structure (SMILES): CN(CCOc1ccc(/C(=C(/CCCl)c2ccccc2)c2ccccc2)cc1)Cc1ccc2c(c1)CN(C1CCC(=O)NC1=O)C2=O (stereo not drawn) [GT-02970, (Z)-3-(5-(((2-(4-(4-chloro-1,2-diphenylbut-1-en-1-yl)phenoxy)ethyl)(methyl)amino)methyl)-1-oxoisoindolin-2-yl)piperidine-2,6-dione]

IC50 for inhibiting the proliferation of tumor cells, SU-DHL-6 (SU-DHL-6; [8]): A+
Structure (SMILES): CN(C)C(=O)c1cc2cnc(Nc3ccc(N4CCC(N(C)Cc5ccc6c(c5)CN(C5CCC(=O)NC5=O)C6=O)CC4)cn3)nc2n1C1CCCC1 (stereo not drawn) [GT-03544, 7-cyclopentyl-2-((5-(4-(((2-(2,6-dioxopiperidin-3-yl)-1-oxoisoindolin-5-yl)methyl)(methyl)amino)piperidin-1-yl)pyridin-2-yl)amino)-N,N-dimethyl-7H-pyrrolo[2,3-d]pyrimidine-6-carboxamide]

pIC50 (HCC827; Homo sapiens, HCC827, read-out: IC50 for inhibiting the proliferation of tumor cells, HCC827): < 5.00 | pIC50 (CCRF-CEM; Table 8, designed based on ER inhibitors, 96 h, read-out: IC50 for inhibiting the proliferation of tumor cells, CCRF-CEM): < 5.00 | pIC50 (T47D; Table 8, designed based on ER inhibitors, 96 h, read-out: IC50 for inhibiting the proliferation of tumor cells, T47D): < 5.00 | pIC50 (MM.1S; Table 8, designed based on ER inhibitors, 72 h, read-out: IC50 for inhibiting the proliferation of tumor cells, MM.1S): < 5.00 | pIC50 (Hep3B2.7-1; Table 8, designed based on ER inhibitors, 96 h, read-out: IC50 for inhibiting the proliferation of tumor cells, Hep3B2.7-1): < 5.00
Structure (SMILES): CC/C(=C(/c1ccc(O)cc1)c1ccc(OCCN)cc1)c1ccc(O)cc1 [GT-03308, reference compound]

IC50 for inhibiting the proliferation of tumor cells, Mino (Mino; [8]): A+ | IC50 for inhibiting the proliferation of tumor cells, SU-DHL-6 (SU-DHL-6; [8]): A+
Structure (SMILES): Cc1nc2c(F)cc(-c3nc(Nc4ccc(N5CCC(N(C)Cc6ccc7c(c6)CN(C6CCC(=O)NC6=O)C7=O)CC5)cn4)ncc3F)cc2n1C(C)C (stereo not drawn) [GT-03639, 3-(5-(((1-(6-((5-fluoro-4-(4-fluoro-1-isopropyl-2-methyl-1H-benzo[d]imidazol-6-yl)pyrimidin-2-yl)amino)pyridin-3-yl)piperidin-4-yl)(methyl)amino)methyl)-1-oxoisoindolin-2-yl)piperidine-2,6-dione]
